Data on 13 compounds can be found in PubChem BioAssay (NCI).

Test systems include A498 renal; M14 melanoma; MOLT-4 leukemia; NCI-H226 lung; NCI-H23 lung; OVCAR-3 ovarian; OVCAR-4 ovarian; PC-3 prostate; RPMI-8226 leukemia; SNB-19 CNS; UO-31 renal; SK-MEL-28 melanoma; SR leukemia.
Holding throughout (assay): growth of human tumour cells (NCI), 48 h

SMILES strings stand for the structures.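 All cell lines were grown in 96-well plates and treated with compound for 48 hours. TGI: total growth inhibition.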

For the compound `COc1cc(N=NN(C)C)c(C(C)c2c3cc(OC)c(OC)cc3cc[n+]2C)cc1OC` (stereo unspecified), the TGI in the assay on A498 renal, in the assay with M14 melanoma, in the assay with MOLT-4 leukemia, in the assay with NCI-H226 lung, with NCI-H23 lung and with OVCAR-3 ovarian was over 100 µM in each case. In addition, the TGI is over 100 µM with OVCAR-4 ovarian; over 100 µM with PC-3 prostate; 70.4 µM in the assay on RPMI-8226 leukemia; over 100 µM in the assay on SNB-19 CNS; over 100 µM in the assay on UO-31 renal.

In the case of `O=C1CCCc2c1c1c(n2Cc2ccccc2)-c2ccccc2C1=O`, the TGI was determined as 46.4 µM with M14 melanoma; 66.1 µM in the assay with NCI-H226 lung; 32.1 µM with NCI-H23 lung; 36.7 µM in the assay on OVCAR-3 ovarian; 36.5 µM with OVCAR-4 ovarian; 96.6 µM with PC-3 prostate. Further, the TGI in the assay on RPMI-8226 leukemia is 24.3 µM; with SK-MEL-28 melanoma, 55.1 µM; with SNB-19 CNS, 41.1 µM; in the assay with UO-31 renal it was over 100 µM.

As to `CC[C@@]1(O)C(=O)OCc2c1cc1n(c2=O)Cc2c-1nc1ccccc1c2CC[Si](C)(C)C`, the TGI was 0.315 µM in the assay with A498 renal; 0.0155 µM in the assay on M14 melanoma; under 0.0467 µM in the assay on NCI-H226 lung; 0.0213 µM in the assay on NCI-H23 lung; 1.4 µM in the assay on OVCAR-3 ovarian; over 56.9 µM with PC-3 prostate. The TGI was 0.834 µM in the assay with RPMI-8226 leukemia, over 100 µM in the assay with SK-MEL-28 melanoma, over 100 µM with SNB-19 CNS and 0.056 µM in the assay with UO-31 renal.

On to `Cc1csc2nc(-c3ccc([N+](=O)[O-])cc3)c(/C=N/N=C(N)N)n12`, for which the TGI in the assay on A498 renal came out at 3.46 µM; in the assay with M14 melanoma it was 3.41 µM; in the assay with NCI-H23 lung it was 3.2 µM; in the assay with OVCAR-3 ovarian, 5.7 µM; in the assay on OVCAR-4 ovarian it was 3.04 µM; in the assay on PC-3 prostate it was 3.25 µM. The TGI in the assay with RPMI-8226 leukemia was determined as 4.12 µM; with SK-MEL-28 melanoma, 3.23 µM; in the assay on SNB-19 CNS, 4.18 µM; in the assay on UO-31 renal, 2.88 µM.

Regarding `O=C(NO)c1coc2ccccc2c1=O`, the TGI with A498 renal, in the assay with M14 melanoma, in the assay on MOLT-4 leukemia, in the assay on NCI-H23 lung, in the assay with OVCAR-4 ovarian and in the assay with RPMI-8226 leukemia was over 100 µM in each case. Besides, the TGI in the assay on SK-MEL-28 melanoma, with SNB-19 CNS and with UO-31 renal was over 100 µM each time.

Regarding `CCOP(=O)(Nc1ccc(-c2ccccc2)cc1)OCC`, the TGI in the assay with A498 renal, in the assay on M14 melanoma, in the assay with MOLT-4 leukemia, with NCI-H23 lung, in the assay on OVCAR-3 ovarian and in the assay with OVCAR-4 ovarian was over 100 µM throughout. Moreover, the TGI in the assay on PC-3 prostate, in the assay on RPMI-8226 leukemia, in the assay on SK-MEL-28 melanoma, in the assay on SNB-19 CNS and with UO-31 renal was over 100 µM throughout.

Consider `COc1ccc(Cc2nc3cc(C(F)(F)F)ccc3n2CCCN(C)C)cc1`, for which the TGI in the assay with A498 renal was 35.6 µM; in the assay on M14 melanoma, 28.7 µM; in the assay on MOLT-4 leukemia, 16.3 µM; with NCI-H226 lung, over 100 µM; with NCI-H23 lung it was 41.1 µM; with OVCAR-3 ovarian it was 46.1 µM. For the same compound, the TGI in the assay with OVCAR-4 ovarian was 80.4 µM; with PC-3 prostate, 75 µM; in the assay on SK-MEL-28 melanoma it was 34.6 µM; with SNB-19 CNS it was over 100 µM; in the assay with UO-31 renal it was 1.04 µM.

For `NNC(=O)CNC(=O)CSc1nnc(COc2ccc(Cl)cc2)n1-c1ccccc1`, the TGI with A498 renal, with M14 melanoma, in the assay with MOLT-4 leukemia, in the assay on NCI-H226 lung, in the assay with NCI-H23 lung and with OVCAR-3 ovarian was over 100 µM throughout. Moreover, the TGI with OVCAR-4 ovarian, in the assay on PC-3 prostate, in the assay with SK-MEL-28 melanoma, with SNB-19 CNS and in the assay on UO-31 renal was over 100 µM throughout.

Regarding `CC(=O)[O-].CC(=O)[O-].O=C(N/N=C/c1cc(Cl)cc(Cl)c1[OH2+])c1ccncc1.[Co+2]`, the TGI in the assay with A498 renal, with M14 melanoma, with MOLT-4 leukemia, in the assay with NCI-H226 lung, in the assay with NCI-H23 lung and in the assay on OVCAR-3 ovarian was over 100 µM in each case. Further, the TGI in the assay on RPMI-8226 leukemia, in the assay on SK-MEL-28 melanoma, in the assay with SNB-19 CNS, in the assay with SR leukemia and with UO-31 renal was over 100 µM throughout.

In the case of `CC1(O)CC2C(CC1SCCO)C2(C)C` (stereo unspecified), the TGI in the assay on A498 renal, in the assay on M14 melanoma, in the assay with MOLT-4 leukemia, with NCI-H23 lung, in the assay on OVCAR-3 ovarian and in the assay on OVCAR-4 ovarian was over 100 µM each time. Moreover, the TGI in the assay on RPMI-8226 leukemia, in the assay with SK-MEL-28 melanoma and with UO-31 renal was over 100 µM throughout.

`Cc1cc2[nH]c3c(C#N)c(-c4ccccc4)c(N=Nc4cccc(C(F)(F)F)c4)c(=O)n3c2cc1C`: the TGI in the assay with A498 renal is over 100 µM; with M14 melanoma, over 100 µM; in the assay on NCI-H226 lung it was over 100 µM; with NCI-H23 lung, 93.4 µM; in the assay with OVCAR-3 ovarian it was 57 µM; in the assay with OVCAR-4 ovarian, over 100 µM. In addition, the TGI with PC-3 prostate, with RPMI-8226 leukemia, with SK-MEL-28 melanoma, in the assay with SNB-19 CNS and in the assay with UO-31 renal was over 100 µM in each case.

For `CCSC1=N/C(=C\c2ccccc2O)C(Nc2ccc(C)cc2)=N1`, the TGI in the assay with A498 renal is over 100 µM; in the assay on M14 melanoma, over 100 µM; with MOLT-4 leukemia, over 100 µM; in the assay with NCI-H226 lung it was over 100 µM; in the assay with NCI-H23 lung, over 100 µM; in the assay on OVCAR-3 ovarian, 67.3 µM. For the same compound, the TGI in the assay on PC-3 prostate, in the assay with RPMI-8226 leukemia, with SK-MEL-28 melanoma, with SNB-19 CNS and in the assay with UO-31 renal was over 100 µM throughout.

As for `O=C(O)CSCC(=O)Nc1ccc2cccc3c2c1CC3`, the TGI in the assay on A498 renal, with M14 melanoma, with MOLT-4 leukemia, in the assay on NCI-H23 lung, in the assay on OVCAR-3 ovarian and with OVCAR-4 ovarian was over 100 µM each time. The TGI in the assay on PC-3 prostate, in the assay on RPMI-8226 leukemia, in the assay with SK-MEL-28 melanoma, in the assay on SNB-19 CNS and in the assay on UO-31 renal was over 100 µM in each case.
